One experiment concerns BxPc-3 cells. The experiment in a line: Annexin V-FITC staining, flow cytometry for apoptosis. Conditions: BxPc-3, varying concentrations, 24 hours. Type of experiment: cell-based, human. On the procedure:
FIG. 4 is a graph wherein BXPC3 pancreatic cancer cells were treated with in varying concentrations of δ-tocotrienol or vehicle for 24 hours. Cells were collected and stained with Annexin V-FITC and analyzed by flow cytometry for apoptosis.
MiaPaCa2 and HPDE 6C7 cells were cultured, as discussed above, and treated with δ-tocotrienol or vehicle. […] MiaPaCa-2, BxPc-3, and SW1990 pancreatic cancer cells were treated with in varying concentrations of δ-tocotrienol or vehicle for 24 hours. The cells were then harvested for annexin V-FITC staining and analyzed by flow cytometry.
Background: A flow cytometer gives signals particle by particle.

The test system of the next experiment is MIA PaCa-2 cells. The experiment in a line: Trypan blue cell death, δ-tocotrienol, 5-FU or combination, 24 hours. Type of experiment: cell-based, human. The following applies: MIA PaCa-2, 50 μM each. How it is done: MIA PaCa-2 cells were treated vehicle or an anti-proliferative treatment comprising 50 μM δ-tocotrienol, 50 μM 5-FU, or 50 μM δ-tocotrienol and 50 μM 5-FU for 24 hours. Cells were harvested, fixed, permeablized and stained with trypan blue.

Turning to `CC(C)=CCC/C(C)=C/CC/C(C)=C/CC[C@]1(C)CCc2cc(O)cc(C)c2O1` [T3 delta, delta tocotrienol], the “induction of apoptosis (annexin V-FITC)” value in the experiment with BxPc-3 cells is reported as “dose dependent induction of apoptosis”. For the same compound, the “cell death (Trypan Blue)” value in the experiment on MIA PaCa-2 cells is “significantly more than 5-FU alone”.

The values above are taken from patent publication US8846653B2, “Delta-tocotrienol treatment and prevention of pancreatic cancer” (University of South Florida, priority 2006, dated 2014).
